# Where two headings read alike, the source gives them in different places. Non-standard residues stand in square brackets, D forms with d. Residues, ends and D or L forms follow the SMILES beside them. No end group written: not given here. Cha = N[C@@H](CC1CCCCC1)C(=O)O
# Assays:
# [1] = tested on: DR5
# [2] = target: DR7; conditions: for Loss of DR7 binding reactivity: relative to parent 760.57
# [3] = target: T1, DRw53 (Homo sapiens, UniProt P01903+P13762)
# [4] = target: T2, DR3 (Homo sapiens, UniProt P01903+P01911, A100K/A102G/A103R/A169T/F55Y/I96L/K41T/L162R/M171V/P40S/Q125H/Q178H/Q39Y/R42S/S66N/T106N/T262R/W38E/Y61H)
# [5] = tested on: DQ3.1
# [6] = target: DR1 (Homo sapiens, UniProt P01903+P01911, A100R/D57E/F55L/F60I/F76Y/I96L/L162R/M171V/P40L/Q125E/R42F/V115G/Y59C); conditions: relative to parent 760.57
# [7] = target: T3, DR4w4 (Homo sapiens, UniProt P01903+P01911, A100K/A169T/F76Y/I96L/K127E/L162R/M171V/N62H/P40V/Q125Y/R42H/S133A/S149N/S66Y/V115G/V209L/W38E); conditions: relative to parent 760.57
# [8] = tested on: human PBMC T cell lines; format: cell-based
# [9] = target: T2, DR3; assay: biochemical
# [10] = target: T3, DR4w4; assay: biochemical; conditions: PADRE Class II Binding Affinities DR4w4
# [11] = target: T1, DRw53; assay: biochemical
# [12] = target: T4, DR2w2a (Homo sapiens, UniProt P01903+Q30154); assay: biochemical
# [13] = tested on: IE^k; format: binding, mouse; conditions: read-out: Capacity to bind purified IE^k, IC50
# [14] = tested on: C57BL/6J (H-2^b+) mice; conditions: mouse, in vivo
# [15] = target: T4, DR2w2a; conditions: read-out: Binding capacity DR2w2a, IC50
# [16] = read-out: PADRE Class II Binding Affinities DR5, Table VIII A
# [17] = read-out: PADRE Class II Binding Affinities DR7, Table VIII A
# [18] = read-out: PADRE Class II Binding Affinities, Table VIII A
# [19] = read-out: Binding capacity DR5, IC50
# T4 sequence (P01903 26-254): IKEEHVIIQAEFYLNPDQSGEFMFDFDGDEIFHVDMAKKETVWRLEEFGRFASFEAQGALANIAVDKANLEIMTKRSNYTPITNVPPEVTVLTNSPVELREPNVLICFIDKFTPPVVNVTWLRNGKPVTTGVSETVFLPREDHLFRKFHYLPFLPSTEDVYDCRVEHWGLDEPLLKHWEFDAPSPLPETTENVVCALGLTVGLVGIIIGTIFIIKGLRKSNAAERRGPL
# T4 sequence (Q30154 30-266): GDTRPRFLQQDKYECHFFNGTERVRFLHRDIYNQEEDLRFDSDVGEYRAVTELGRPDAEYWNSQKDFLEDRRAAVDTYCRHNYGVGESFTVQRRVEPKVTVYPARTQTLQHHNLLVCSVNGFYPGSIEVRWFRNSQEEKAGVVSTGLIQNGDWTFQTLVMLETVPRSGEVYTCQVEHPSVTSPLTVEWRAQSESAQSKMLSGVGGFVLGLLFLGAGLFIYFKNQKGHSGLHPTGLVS
# T1 sequence (P01903 26-254): as the sequence (P01903 26-254) above
# T1 sequence (P13762 30-266): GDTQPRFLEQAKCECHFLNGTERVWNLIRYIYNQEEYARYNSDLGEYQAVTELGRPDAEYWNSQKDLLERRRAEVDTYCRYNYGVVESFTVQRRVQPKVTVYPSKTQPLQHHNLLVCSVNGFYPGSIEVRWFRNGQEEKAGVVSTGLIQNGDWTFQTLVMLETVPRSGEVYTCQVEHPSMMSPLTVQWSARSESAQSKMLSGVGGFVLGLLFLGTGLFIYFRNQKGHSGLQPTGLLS
compound,measurement,setting,value
CC(C)C[C@H](NC(=O)[C@@H](NC(=O)[C@H](C)NC(=O)[C@H](CCC(=O)O)NC(=O)[C@H](C)NC(=O)[C@H](C)NC(=O)[C@H](CC1CCCCC1)NC(=O)[C@H](C)NC(=O)[C@@H](C)N)[C@@H](C)O)C(=O)N[C@@H](CCCCN)C(=O)N[C@@H](C)C(=O)N[C@@H](C)C(=O)N[C@H](C)C(N)=O [Peptide 906.19],IC50,[1]; read-out: PADRE Class II Binding Affinities DR5,0.0065 µM
same,PADRE Class II Binding Affinities DR7,[2],DR7 reactivity was lost
same,IC50,[2]; read-out: PADRE Class II Binding Affinities DR7,250 µM
same,Increase in DR53 reactivity,[3],20 fold
CC(C)C[C@H](NC(=O)[C@@H](NC(=O)[C@H](C)NC(=O)[C@H](CCC(N)=O)NC(=O)[C@H](C)NC(=O)[C@H](C)NC(=O)[C@H](CC1CCCCC1)NC(=O)[C@H](C)NC(=O)[C@@H](C)N)[C@@H](C)O)C(=O)N[C@@H](CCCCN)C(=O)N[C@@H](C)C(=O)N[C@@H](C)C(=O)N[C@H](C)C(N)=O [Peptide 906.20] (H-[dA]A[Cha]AAQATLKAA[dA]-NH2; N-terminus and C-terminus assumed),PADRE Class II Binding Affinities DR3,[4]; Table VIII A,loss of DR3 binding
same,IC50,[1]; [16],0.0041 µM
same,IC50,[2]; [17],2.5 µM
same,Loss of DR7 binding reactivity,[2],30 fold
same,IC50,[5]; [18],0.652 µM
C[C@H](NC(=O)[C@H](C)NC(=O)[C@H](C)NC(=O)[C@H](CC1CCCCC1)NC(=O)[C@H](C)NC(=O)[C@@H](C)N)C(=O)N[C@@H](C)C(=O)N[C@H](C(=O)N[C@@H](CCC(=O)O)C(=O)N[C@@H](CCCCN)C(=O)N[C@@H](C)C(=O)N[C@@H](C)C(=O)N[C@H](C)C(N)=O)[C@@H](C)O [Peptide 906.30] (H-[dA]A[Cha]AAAATEKAA[dA]-NH2; N-terminus and C-terminus assumed),Loss of DR1 binding reactivity,[6],8 fold
same,Loss of DR4w4 binding reactivity,[7],7 fold
same,IC50,[1]; [16],0.0515 µM
same,Loss of DR5 binding reactivity,[1]; relative to parent 760.57,10 fold
same,IC50,[2]; [17],0.758 µM
same,Loss of DR7 binding reactivity,[2],10 fold
same,IC50,[5]; [18],0.148 µM
same,Increase in DQ3.1 binding reactivity,[5]; relative to parent 760.57,no reactivity was gained
CC(C)C[C@H](NC(=O)[C@@H](NC(=O)[C@H](C)NC(=O)[C@H](C)NC(=O)[C@H](C)NC(=O)[C@H](C)NC(=O)[C@H](CC1CCCCC1)NC(=O)[C@H](C)NC(=O)[C@@H](C)N)[C@@H](C)O)C(=O)N[C@@H](CCCCN)C(=O)N[C@@H](C)C(=O)N[C@@H](Cc1ccccc1)C(=O)N[C@H](C)C(N)=O [Peptide 906.50] (H-[dA]A[Cha]AAAATLKAF[dA]-NH2; N-terminus and C-terminus assumed),Increase in DR3 reactivity,[4]; relative to parent 760.57,8 fold
same,IC50,[1]; [16],0.0095 µM
same,IC50,[2]; [17],0.0735 µM
same,Increase in DR53 reactivity,[3]; relative to parent 760.57,40 fold
same,IC50,[5]; [18],0.02 µM
CC(C)C[C@H](NC(=O)[C@@H](NC(=O)[C@H](Cc1c[nH]cn1)NC(=O)[C@H](C)NC(=O)[C@H](C)NC(=O)[C@@H](NC(=O)[C@H](CC1CCCCC1)NC(=O)[C@H](CCCCN)NC(=O)[C@@H](C)N)C(C)C)[C@@H](C)O)C(=O)N[C@@H](CCCCN)C(=O)N[C@@H](C)C(=O)N[C@@H](C)C(=O)N[C@H](C)C(N)=O [Peptide 955.15],"Donors with significant (>10,000 cpm) T cell response / donors tested, second stimulation",[8],2/15
same,"Donors with significant (>10,000 cpm) T cell response / donors tested, third stimulation",[8],4/5
same,IC50,"[9]; PADRE Class II Binding Affinities DR3, Table IX",2.5 µM
same,IC50,[10],0.0032 µM
same,IC50,[11],0.05 µM
same,IC50,"[12]; PADRE Class II Binding Affinities DR2w282, Table IX",0.0054 µM
CC(C)C[C@H](NC(=O)[C@@H](NC(=O)[C@H](Cc1c[nH]c2ccccc12)NC(=O)[C@H](C)NC(=O)[C@H](C)NC(=O)[C@@H](NC(=O)[C@H](CC1CCCCC1)NC(=O)[C@H](CCCCN)NC(=O)[C@@H](C)N)C(C)C)[C@@H](C)O)C(=O)N[C@@H](CCCCN)C(=O)N[C@@H](C)C(=O)N[C@@H](C)C(=O)N[C@H](C)C(N)=O [Peptide 965.10],IC50,[13]; Table III,0.326 µM
same,"Donors with significant (>10,000 cpm) T cell response / donors tested, second stimulation",[8],9/12 and all 5 individuals
same,"Donors with significant (>10,000 cpm) T cell response / donors tested, third stimulation",[8],11 of 12 and all 5 individuals
same,Effective immunizing dose,[14],0.05 μg/mouse
CC(C)C[C@H](NC(=O)[C@@H](NC(=O)[C@H](Cc1c[nH]c2ccccc12)NC(=O)[C@H](C)NC(=O)[C@H](C)NC(=O)[C@@H](NC(=O)[C@H](CC1CCCCC1)NC(=O)[C@H](CCCCN)NC(=O)[C@H](C)N)C(C)C)[C@@H](C)O)C(=O)N[C@@H](CCCCN)C(=O)N[C@@H](C)C(=O)N[C@@H](C)C(=O)N[C@@H](C)C(N)=O [Peptide 965.17],"Donors with significant (>10,000 cpm) T cell response / donors tested, second stimulation",[8],2/5
same,"Donors with significant (>10,000 cpm) T cell response / donors tested, third stimulation",[8],4/5
same,IC50,[9]; PADRE Class II Binding Affinities DR3,3.21 µM
same,IC50,[11],0.107 µM
same,IC50,[12]; PADRE Class II Binding Affinities DR2w282,0.0058 µM
"YSGPLKAEIAQRLEDV [MT (Y)17-31, reference compound]",IC50,[1]; [19],> 10 µM
same,IC50,"[2]; read-out: Binding capacity DR7, IC50",0.208 µM
same,IC50,[15],0.35 µM
aKFVAAWTLKAAa [Peptide 1024.03],IC50,[13],3.5 µM
same,Effective immunizing dose,[14],0.05 μg/mouse
same,IC50,[1]; [19],0.018 µM
same,IC50,"[5]; read-out: Capacity to bind purified DQ3.1, IC50",0.023 µM

# Source: patent publication US6413935B1, “Induction of immune response against desired determinants” (priority 1993, dated 2002)
